Experimental data published in ChEMBL document CHEMBL5244219, “Recent developments of quinolone-based derivatives and their activities against Escherichia coli” (Eur J Med Chem, 2018).
pIC50: −log10 of the molar value. Values after ≈ are worked out from the molar mass of the structure shown.

Tests used:
[1] = system: Escherichia coli; experiment: In vivo antibacterial activity against Escherichia coli H560 infected in sc dosed CD-1 mouse assessed as bacterial growth inhibition; assay type: functional; settings: read-out: PD50
[2] = system: Escherichia coli; experiment: In vivo antibacterial activity against Escherichia coli H560 infected in po dosed CD-1 mouse assessed as bacterial growth inhibition; assay type: functional; settings: read-out: PD50
[3] = system: Escherichia coli; experiment: Antibacterial activity against Escherichia coli H560 assessed as bacterial growth inhibition; assay type: functional
[4] = system: Escherichia coli; experiment: Antibacterial activity against Escherichia coli DC2 assessed as bacterial growth inhibition; assay type: functional
[5] = system: Escherichia coli; experiment: Antibacterial activity against Escherichia coli DC0 assessed as bacterial growth inhibition; assay type: functional
[6] = system: Escherichia coli; experiment: Antibacterial activity against Escherichia coli ES142 assessed as bacterial growth inhibition; assay type: functional
[7] = molecular target: DNA gyrase (Escherichia coli, UniProt P0AES4+P0AES6); experiment: Inhibition of Escherichia coli DNA gyrase; assay type: protein-complex assay
[8] = system: Escherichia coli; experiment: Potency index, ratio of norfloxacin MIC to compound IC50 for antibacterial activity against Escherichia coli DH52; assay type: functional
[9] = system: Escherichia coli; experiment: Antibacterial activity against Escherichia coli DH52 assessed as bacterial growth inhibition; assay type: functional
[10] = system: Escherichia coli; experiment: Antibacterial activity against Escherichia coli JM109 assessed as bacterial growth inhibition; assay type: functional
[11] = system: Escherichia coli; experiment: Potency index, ratio of ciprofloxacin MIC to compound IC50 for antibacterial activity against Escherichia coli DH52; assay type: functional; settings: time 24 hrs
[12] = system: Escherichia coli; experiment: Potency index, ratio of norfloxacin MIC to compound IC50 for antibacterial activity against Escherichia coli JM109; assay type: functional
[13] = system: Escherichia coli; experiment: Potency index, ratio of ciprofloxacin MIC to compound IC50 for antibacterial activity against Escherichia coli JM109; assay type: functional
[14] = system: Escherichia coli; experiment: Antibacterial activity against Escherichia coli ATCC 25922 assessed as bacterial growth inhibition; assay type: functional
[15] = system: Escherichia coli; experiment: Antibacterial activity against drug-sensitive Escherichia coli assessed as bacterial growth inhibition; assay type: functional
[16] = system: Escherichia coli; experiment: Antibacterial activity against Escherichia coli TolC assessed as bacterial growth inhibition; assay type: functional
[17] = system: Escherichia coli; experiment: Antibacterial activity against Escherichia coli DH5alpha assessed as bacterial growth inhibition; assay type: functional
[18] = system: Escherichia coli; experiment: Antibacterial activity against Escherichia coli DC0 assessed as bacterial growth inhibition by agar dilution method; assay type: functional
[19] = system: Escherichia coli; experiment: Potency index, ratio of ceftazidime MIC to compound IC50 for antibacterial activity against Escherichia coli DC0; assay type: functional
[20] = system: Escherichia coli; experiment: Antibacterial activity against Escherichia coli DC2 assessed as bacterial growth inhibition by agar dilution method; assay type: functional
[21] = system: Escherichia coli; experiment: Potency index, ratio of ceftazidime MIC to compound IC50 for antibacterial activity against Escherichia coli DC2; assay type: functional
[22] = AUC in marmoset at 3 mg/kg, iv; assay type: ADME, organism-based; set-up: dose 3 mg/kg, route iv; settings: callitrichinae sp., in vivo
[23] = Protein binding in marmoset plasma; assay type: ADME, cell-free, Callithrix jacchus; settings: read-out: PPB (converted)
[24] = Half life in marmoset at 3 mg/kg, iv; assay type: ADME, organism-based; settings: callitrichinae sp., in vivo
[25] = system: Escherichia coli; experiment: Antibacterial activity against Escherichia coli 2010-05 assessed as bacterial growth inhibition measured after 24 hrs by agar dilution method; assay type: functional
[26] = system: Escherichia coli; experiment: Antibacterial activity against Escherichia coli assessed as bacterial growth inhibition by microdilution method; assay type: functional
[27] = system: Escherichia coli; experiment: Antibacterial activity against Escherichia coli assessed as bacterial growth inhibition incubated for 18 hrs by twofold serial dilution assay; assay type: functional
[28] = system: Escherichia coli; experiment: Antibacterial activity against Escherichia coli KC-14 infected in po dosed mouse assessed as bacterial growth inhibition; assay type: functional
[29] = system: Escherichia coli; experiment: Antibacterial activity against Escherichia coli NIHJ JC-2 assessed as bacterial growth inhibition; assay type: functional
[30] = system: Escherichia coli; experiment: Antibacterial activity against Escherichia coli assessed as bacterial growth inhibition; assay type: functional
[31] = system: Escherichia coli; experiment: Antibacterial activity against Escherichia coli assessed as bacterial growth inhibition by agar dilution method; assay type: functional
[32] = system: Escherichia coli; experiment: Antibacterial activity against Escherichia coli NCTC 10419 assessed as bacterial growth inhibition; assay type: functional
[33] = system: Escherichia coli; experiment: In vivo antibacterial activity against Escherichia coli NCTC 10419 infected in po dosed CF-mouse assessed as bacterial growth inhibition; assay type: functional, organism-based
[34] = system: Escherichia coli; experiment: Antibacterial activity against Escherichia coli 2010-29 assessed as bacterial growth inhibition measured after 24 hrs by agar dilution method; assay type: functional
[35] = system: Escherichia coli; experiment: Antibacterial activity against Escherichia coli NCDC 134 assessed as bacterial growth inhibition; assay type: functional
[36] = system: Escherichia coli; experiment: Antibacterial activity against clinical isolate Escherichia coli assessed as bacterial growth inhibition incubated for 24 hrs by agar dilution method; assay type: functional
[37] = system: Escherichia coli; experiment: Antibacterial activity against Escherichia coli assessed as bacterial growth inhibition incubated for 18 to 20 hrs by agar dilution method; assay type: functional; settings: time 18-20 hrs
[38] = system: Escherichia coli; experiment: Antibacterial activity against Escherichia coli ATCC 700603 assessed as bacterial growth inhibition by agar dilution method; assay type: functional
[39] = system: Escherichia coli; experiment: Antibacterial activity against Escherichia coli assessed as bacterial growth inhibition incubated for 24 hrs by agar streak dilution method; assay type: functional
[40] = system: Escherichia coli; experiment: Antibacterial activity against Escherichia coli K-12 C600 assessed as bacterial growth inhibition; assay type: functional
[41] = system: Escherichia coli; experiment: Antibacterial activity against Escherichia coli assessed as zone of inhibition at 5 ug per disc; assay type: functional; settings: read-out: DIZ
[42] = system: Escherichia coli; experiment: Antibacterial activity against Escherichia coli KC-14 assessed as bacterial growth inhibition; assay type: functional
[43] = system: Escherichia coli; experiment: Antibacterial activity against Escherichia coli assessed as bacterial growth inhibition incubated for 18 hrs by agar dilution method; assay type: functional
[44] = Escherichia coli, KC-14, po, read-out: ED50

O=C(O)c1cn(-c2ccc(F)cc2F)c2nc(N3CCCC3)c(F)cc2c1=O
ED50 [1]: 0.2 mg/kg
ED50 [2]: 0.5 mg/kg
MIC [3]: 0.025 mg/L (≈ 0.0642 µM)

C[C@H]1COc2cc(N3CC[C@@H](C(C)(C)N)C3)cc3c(=O)c(C(=O)O)cn1c23
MIC [4]: 0.063 mg/L (≈ 0.17 µM)
MIC [5]: 0.063 mg/L (≈ 0.17 µM)
MIC [6]: 0.063 mg/L (≈ 0.17 µM)
pIC50 [7]: 5.06

Cc1c(N2CCN(Cc3nc4ccccc4n3Cc3ccc(Cl)cc3Cl)CC2)c(F)cc2c(=O)c(C(=O)O)cn(C3CC3)c12
Ratio [8]: 2
MIC [9]: 0.125 mg/L (≈ 0.197 µM)
MIC [10]: 0.125 mg/L (≈ 0.197 µM)
Ratio [11]: 2
Ratio [12]: 2
Ratio [13]: 2

C[C@@H](O)[C@H]1C(=O)N2C(C(=O)O)=C(COC(=O)N[C@H]3CCN(c4c(F)cc5c(=O)c(C(=O)O)cn(C6CC6)c5c4F)C3)S[C@H]12
MIC [14]: ≤ 0.06 mg/L

O=C(O)c1cn(C2CC2)c2cc(N3CCN([C@@H]4O[C@H](CO)[C@H](O)[C@H](O)[C@H]4O)CC3)c(F)cc2c1=O
MIC [15]: ≤ 0.03 mg/L

Cc1[nH]c2ccccc2c(=O)c1C
MIC50 [16]: > 1.41 mg/L
MIC50 [17]: > 64 mg/L

Cc1c(N2CCN(c3nc4ccccc4[nH]3)CC2)c(F)cc2c(=O)c(C(=O)O)cn(C3CC3)c12
Ratio [8]: 2
MIC [9]: 0.125 mg/L (≈ 0.271 µM)
MIC [10]: 0.125 mg/L (≈ 0.271 µM)
Ratio [11]: 2
Ratio [12]: 2
Ratio [13]: 2

CCO/N=C(\C(=O)N[C@@H]1C(=O)N2C(C(=O)O)=C(CNC(=O)c3cn(CC)c4cc(O)c(O)cc4c3=O)CSC12)c1csc(N)n1 (stereo in doubt)
MIC [18]: 0.008 mg/L (≈ 0.0122 µM)
Ratio [19]: 8
MIC [20]: 0.008 mg/L (≈ 0.0122 µM)
Ratio [21]: 8

CCn1cc(C(=O)NCC2=C(C(=O)O)N3C(=O)[C@@H](NC(=O)/C(=N\OC(C)(C)C(=O)O)c4csc(N)n4)C3SC2)c(=O)c2cc(O)c(O)cc21 (stereo in doubt)
AUC [22]: 238 µg·h/mL
MIC [18]: 0.008 mg/L (≈ 0.0112 µM)
Ratio [19]: 8
MIC [20]: 0.008 mg/L (≈ 0.0112 µM)
fraction unbound [23]: 0.008
half-life [24]: 3.47 h
Ratio [21]: 8

CC(C)(O/N=C(\C(=O)N[C@@H]1C(=O)N2C(C(=O)[O-])=C(C[n+]3ccccc3)CS[C@H]12)c1csc(N)n1)C(=O)O [CEFTAZIDIME]
AUC [22]: 14 µg·h/mL
MIC [18]: 0.06 mg/L (≈ 0.11 µM)
MIC [20]: 0.06 mg/L (≈ 0.11 µM)
half-life [24]: 0.7 h

O=C(O)c1cn(C2CC2)c2cc(N3CCNCC3)c(F)cc2c1=O [CIPROFLOXACIN]
MIC [25]: 64 mg/L (≈ 193 µM)
MIC [16]: 8.21 mg/L (≈ 24.8 µM)
MIC [26]: ≤ 0.03 mg/L
ED50 [1]: 0.3 mg/kg
ED50 [2]: 1 mg/kg
MIC [27]: ≤ 0.015 mg/L
ED50 [28, 44]: 0.45 mg/kg
MIC [3]: ≤ 0.003 mg/L
MIC [29]: 0.0063 mg/L (≈ 0.019 µM)
MIC [30]: 0.025 mg/L (≈ 0.0754 µM)
MIC90 [31]: 4 mg/L (≈ 12.1 µM)
MIC [32]: 0.0011 mg/L (≈ 0.00332 µM)
EC50 [33]: 1.25 mg/kg
MIC [34]: 64 mg/L (≈ 193 µM)
MIC [35]: 40 mg/L (≈ 121 µM)

CO/N=C1\CN(c2nc3c(cc2F)c(=O)c(C(=O)O)cn3C2CC2)CC1CN (stereo unspecified) [GEMIFLOXACIN]
MIC90 [36]: 32 mg/L (≈ 82.2 µM)

C[C@H]1COc2c(N3CCN(C)CC3)c(F)cc3c(=O)c(C(=O)O)cn1c23.C[C@H]1COc2c(N3CCN(C)CC3)c(F)cc3c(=O)c(C(=O)O)cn1c23.O [LEVOFLOXACIN]
MIC [25]: 32 mg/L
MIC90 [36]: 32 mg/L
MIC90 [31]: 4 mg/L
MIC [34]: 32 mg/L

CCn1cc(C(=O)O)c(=O)c2cc(F)c(N3CCNCC3)cc21 [NORFLOXACIN]
MIC [10]: 1 mg/L (≈ 3.13 µM)
MIC [27]: 0.25 mg/L (≈ 0.783 µM)
MIC [37]: 0.31 mg/L (≈ 0.971 µM)
MIC [30]: 0.1 mg/L (≈ 0.313 µM)
MIC [38]: 4 mg/L (≈ 12.5 µM)
MIC [39]: 6.25 mg/L (≈ 19.6 µM)
MIC [35]: 25 mg/L (≈ 78.3 µM)

CC1COc2c(N3CCN(C)CC3)c(F)cc3c(=O)c(C(=O)O)cn1c23 (stereo unspecified) [OFLOXACIN]
MIC [40]: 0.2 mg/L (≈ 0.553 µM)
ED50 [28]: 0.55 mg/kg
ED50 [28, 44]: 1.1 mg/kg
zone of inhibition at 5 µg/disc [41]: 22 mm
MIC [42]: 0.1 mg/L (≈ 0.277 µM)

N[C@@H]1CN(c2c(F)cc3c(=O)c(C(=O)O)cn([C@@H]4C[C@@H]4F)c3c2Cl)CC12CC2 [SITAFLOXACIN ANHYDROUS]
MIC [43]: ≤ 0.006 mg/L
